For one series, the system named is MC38 adenocarcinoma. On the set-up: species or system C57BL/6 mice. The settings on record: mouse, in vivo, sc.
Series [1] has as its system immature DCs co-cultured with effector-type CD8+ T cells. It counts as cell-based, human.
For series [2], the system named is SEB-loaded DCs co-cultured with memory-type CD8+ T cells. It counts as cell-based, human.
For a further series, the system named is PI-9 in DCs. Kind of series: Intracellular PI-9 expression in DCs (flow cytometry). It counts as cell-based, human. As for the experimental part: Flow cytometry. Cell surface phenotype was analyzed by flow cytometry using Beckman Coulter XL. The FITC and PE-labeled isotype controls (mouse IgG1 and IgG2a), anti-human CD86, anti-human perforin were obtained from BD Pharmingen. CD83 monoclonal antibody was purchased from Immunotech and PE-labeled Granzyme B antibody was obtained from Cell Sciences. Goat anti-mouse IgG-FITC conjugated was obtained from Caltag Laboratories. For detection of intracellular PI-9, PI-9 specific mouse monoclonal IgG1 antibody was used as described (Bladergroen et al., J. Immunol. 166:3218-3225 (2001)). Briefly, for intracellular staining of PI-9, DCs were washed and then blocked with human Ig for 10 minutes at room temperature. Subsequently, cells were permeabilized with 300 μl of Permiflow (Invirion, Frankfort, Mich.) for 60 minutes at room temperature and then washed. The cells were stained with unconjugated anti human PI-9 antibody for 20 minutes at room temperature followed by staining with FITC conjugated goat anti-mouse IgG antibody. Granzyme B and perforin staining were performed according to manufacturer's protocol, using Permiflow as permeabilization reagent. […]
Intracellular expression of PI-9 (open profiles) in DCs has been analyzed by flow cytometry before and after (15 and 120 minutes) the exposure to recombinant TNFα (50 ng/ml).
In general terms: Flow cytometry measures light scatter and fluorescence of single cells or particles in a stream.

A further series concerns SEB loaded DCs. It is filed as cell-based, human.

“Also recorded” adds a separate entry of the source. The star is where a group is joined. Cbz = O=C(OCc1ccccc1)*; CH2F = FC*

Consider KAVYNFATC [LCMVgp33-41], for which the “induction of MC38-specific CTL activity (killing MC38)” value in the series with MC38 adenocarcinoma is listed as “more effective in killing MC38 than a DC vaccine loaded only with tumor antigen”.
`O=C(O)CN(CCOCCOCCN(CC(=O)O)CC(=O)O)CC(=O)O` [EGTA]: the “DC killing by effector-type CD8+ T cells” value in series [1] is on record as “completely eliminated”.
For Infliximab, the “DC survival in co-culture with memory-type CD8+ T cells” value in series [2] is listed as “equally effective in converting the memory T cell-induced DC activation into memory T cell-induced DC death; also recorded: reduces DC survival”. The “memory-type CD8+ T cell-induced induction of PI-9 in DCs” value in the series on PI-9 in DCs (10 hour time point) is reported as “blocks”.
On to Cbz-IETD-CH2F, for which the “CTL-induced DC death (survival of DCs)” value in series [1] is recorded as “abrogated the CTL-induced DC death”.
Consider IETD-CHO, for which the “CTL-induced DC death (survival of DCs)” value in series [1] is reported as “abrogated the CTL-induced DC death”.
With SIINFEKL [OVA257-264], in the series with MC38 adenocarcinoma, the “induction of MC38-specific CTL activity (killing MC38)” value is given as “more effective in killing MC38 than a DC vaccine loaded only with tumor antigen”.
For the molecule TNFα, in series [1], the “resistance of immature DCs to CTL killing” value is recorded as “acquired resistance to CTL killing”. Moreover, in the series with PI-9 in DCs (recombinant TNFα 50 ng/ml, 15 and 120 minutes), the “induction of PI-9 in DCs” value was “Rapid induction of PI-9”.
Concanamycin A: the “DC killing by effector-type CD8+ T cells” value in series [1] is “completely eliminated; also recorded: abrogated their DC-killing ability”. For the same molecule, in the series on SEB loaded DCs, the “DC activation / phenotypic maturation (CD86, CD83)” value is reported as “enhance DC activation”.

B1: soluble TNF receptor I: recombinant human soluble TNF-RI (R&D Systems) (protein, UniProt P19438 30-211, looked up)
extracellular domain: LVPHLGDREKRDSVCPQGKYIHPQNNSICCTKCHKGTYLYNDCPGPGQDTDCRECESGSFTASENHLRHCLSCSKCRKEMGQVEISSCTVDRDTVCGCRKNQYRHYWSENLFQCFNCSLCLNGTVHLSCQEKQNTVCTCHAGFFLRENECVSCSNCKKSLECTKLCLPQIENVKGTEDSGTT
modifications: extracellular domain
On to B1, for which, in series [2], the “DC survival in co-culture with memory-type CD8+ T cells” value was “equally effective in converting the memory T cell-induced DC activation into memory T cell-induced DC death”.

These data come from patent publication US7655216B2, “Vaccine for activating helper function of CD8+ Tcells” (University of Pittsburgh - Of the Commonwealth of Higher …, priority 2007, dated 2010).
